The first series deals with Leimyosarcoma tumour cell line SK-UT-1B. As to the kind of experiment: Inhibition of the proliferation of cultivated human tumour cells (Test 2). Type of series: cell-based. To be noted: Homo sapiens, Skut1B; SK-UT-1B cells; 48 hours' incubation, then 14C-thymidine for a further 24 hours; inhibition of incorporated 14C-thymidine; read-out: Inhibition of SKUT-1B-proliferation IC50. The procedure: Inhibition of the Proliferation of Cultivated Human Tumour Cells
Cells of the Leimyosarcoma tumour cell line SK-UT-1B (obtained from the American Type Culture Collection (ATCC)) were cultivated in Minimum Essential Medium with non-essential amino acids (Gibco), supplemented with sodium pyruvate (1 mmol), glutamine (2 mmol) and 10% foetal calf serum (Gibco) and harvested during the log-growth phase. Then the SK-UT-1B cells were added to Cytostar® multi-well plates (Amersham) at a density of 4000 cells per well and incubated overnight in an incubator. Various concentrations of the compounds (dissolved in DMSO; final concentration: <1%) were added to the cells. After 48 hours' incubation ^14C-thymidine (Amersham) was added to each well and incubation was continued for a further 24 hours. The quantity of ^14C-thymidine incorporated into the tumour cells in the presence of the inhibitor and representing the number of cells in the S phase was measured in a Wallace 1450 Microbeta Liquid Scintillation Counter. IC50 values for the inhibition of proliferation (=inhibition of incorporated ^14C-thymidine) were calculated, correcting for the background radiation. All the measurements were done twice.
The Table which follows contains the results obtained in in vitro test 2: […]
Turning to `CN(C)Cc1ccc(N/C(=C2\C(=O)Nc3ccc([N+](=O)[O-])cc32)c2ccccc2)cc1` [Example 117, (Z)-3-[1-(4-dimethylaminomethyl-phenylamino)-1-phenyl-methylidene]-5-nitro-2-indolinone], the IC50 turned out to be 0.34 µM.
On the same count and under the same terms, to `O=C1Nc2ccc([N+](=O)[O-])cc2/C1=C(/Nc1ccc(CCN2CCOCC2)cc1)c1ccccc1` [Example 133, (Z)-3-{1-[4-(2-morpholinoethyl)-phenylamino]-1-phenyl-methylidene}-5-nitro-2-indolinone] belongs 0.48 µM.
Same read-out and setting: in the case of `CN(C)CCc1ccc(N/C(=C2\C(=O)Nc3ccc([N+](=O)[O-])cc32)c2ccccc2)cc1` [Example 134, (Z)-3-{1-[4-(2-dimethylamino-ethyl)-phenylamino]-1-phenyl-methylidene}-5-nitro-2-indolinone] it was 0.56 µM; in that of `O=C1Nc2ccc([N+](=O)[O-])cc2/C1=C(/Nc1ccc(CN2CCCCC2)cc1)c1ccccc1` [Example 170, (Z)-3-[1-(4-piperidinomethyl-phenylamino)-1-phenyl-methylidene]-5-nitro-2-indolinone], 0.22 µM.

The series is the same for the next values; noted with them: SK-UT-1B cells; 48 hours' incubation, then 14C-thymidine for a further 24 hours; inhibition of incorporated 14C-thymidine; read-out: Inhibition of SKUT-1B-proliferation IC50.
On to `CN(C)CCN(c1ccc(N/C(=C2\C(=O)Nc3ccccc32)c2ccccc2)cc1)S(C)(=O)=O` [Example 188], for which the IC50 came to 0.15 µM.

System in the next series: not given
Assay: not given
Conditions: not given
On to `CN(C)Cc1ccc(N/C(=C2\C(=O)Nc3ccc([N+](=O)[O-])cc32)c2ccccc2)cc1` [Example 117, (Z)-3-[1-(4-dimethylaminomethyl-phenylamino)-1-phenyl-methylidene]-5-nitro-2-indolinone], for which the melting point lay in the range of 264 to 265 °C.
`O=C1Nc2ccc([N+](=O)[O-])cc2/C1=C(/Nc1ccc(CCN2CCOCC2)cc1)c1ccccc1` [Example 133, (Z)-3-{1-[4-(2-morpholinoethyl)-phenylamino]-1-phenyl-methylidene}-5-nitro-2-indolinone] came in with a melting point of 304 to 306 °C.
`CN(C)CCc1ccc(N/C(=C2\C(=O)Nc3ccc([N+](=O)[O-])cc32)c2ccccc2)cc1` [Example 134, (Z)-3-{1-[4-(2-dimethylamino-ethyl)-phenylamino]-1-phenyl-methylidene}-5-nitro-2-indolinone] registered a melting point of 238 to 240 °C.
Same read-out and setting: in the case of `O=C1Nc2ccc([N+](=O)[O-])cc2/C1=C(/Nc1ccc(CN2CCCCC2)cc1)c1ccccc1` [Example 170, (Z)-3-[1-(4-piperidinomethyl-phenylamino)-1-phenyl-methylidene]-5-nitro-2-indolinone] it was 242 to 243 °C; in that of `CN(C)CC(=O)N(C)c1ccc(N/C(=C2\C(=O)Nc3ccccc32)c2ccc(CN)cc2)cc1` [Example 430, (Z)-3-{1-[4-(N-dimethylaminomethylcarbonyl-N-methyl-amino)-phenylamino]-1-(4-aminomethyl-phenyl)-methylidene}-2-indolinone], 188 to 190 °C.
The compound `CC(=O)NCc1ccc(/C(Nc2ccc(N(C)C(=O)CN(C)C)cc2)=C2/C(=O)Nc3ccccc32)cc1` [Example 431, (Z)-3-{1-[4-(N-dimethylaminomethylcarbonyl-N-methyl-amino)-phenylamino]-1-(4-acetylaminomethyl-phenyl)-methylidene}-2-indolinone] had a melting point of 123 to 125 °C.
The same measure, in the same setting: to `COC(=O)/C=C/c1ccc(/C(Nc2ccc(OC)cc2)=C2/C(=O)Nc3ccc([N+](=O)[O-])cc32)cc1` [Example 435, (Z)-3-{1-(4-methoxyphenylamino)-1-[(E)-4-(2-methoxycarbonylethenyl)-phenyl]-methylidene}-5-nitro-2-indolinone] belongs 266 to 270 °C; to `O=C1Nc2ccc([N+](=O)[O-])cc2/C1=C(/Nc1ccc(Br)cc1)c1ccc(Cn2ccnc2)cc1` [Example 438, (Z)-3-{1-[4-Bromophenylamino]-1-[4-(imidazol-1-ylmethyl)-phenyl]-methylidene}-5-nitro-2-indolinone], 260 to 265 °C; to `O=C1Nc2ccc([N+](=O)[O-])cc2/C1=C(/Nc1ccc(CN2CCCCC2)cc1)c1ccc(Cn2ccnc2)cc1` [Example 439, (Z)-3-{1-[4-piperidinomethyl-phenylamino]-1-[4-(imidazol-1-yl-methyl)-phenyl]-methylidene}-5-nitro-2-indolinone], 226 to 228 °C.
On the same count and under the same terms, to `CN(Cc1ccccc1)Cc1ccc(N/C(=C2\C(=O)Nc3ccc([N+](=O)[O-])cc32)c2ccc(Cn3ccnc3)cc2)cc1` [Example 440, (Z)-3-{1-[4-(N-benzyl-N-methyl-aminomethyl)-phenylamino]-1-[4-(imidazol-1-ylmethyl)-phenyl]-methylidene}-5-nitro-2-indolinone] belongs 195 to 198 °C; to `COc1ccc(/C(Nc2ccc(CN3CCCCC3)cc2)=C2/C(=O)Nc3ccc([N+](=O)[O-])cc32)cc1` [Example 441, (Z)-3-[1-(4-piperidinomethyl-phenylamino)-1-(4-methoxyphenyl)-methylidene]-5-nitro-2-indolinone], 230 to 233 °C.
The compound `O=C1Nc2ccc([N+](=O)[O-])cc2/C1=C(/Nc1ccc(CN2CCCCC2)cc1)c1ccc(C(F)(F)F)cc1` [Example 442, (Z)-3-[1-(4-piperidinomethyl-phenylamino)-1-(4-trifluoromethyl-phenyl)-methylidene]-5-nitro-2-indolinone] returned a melting point of 300 to 302 °C.
The same measure, in the same setting: to `O=C1Nc2ccc([N+](=O)[O-])cc2/C1=C(/Nc1ccc(CN2CCCCC2)cc1)c1ccc(Cl)cc1` [Example 443, (Z)-3-[1-(4-piperidinomethyl-phenylamino)-1-(4-chlorophenyl)-methylidene]-5-nitro-2-indolinone] belongs 309 to 311 °C; to `COC(=O)c1ccc(/C(Nc2ccc(CN3CCCCC3)cc2)=C2/C(=O)Nc3ccc([N+](=O)[O-])cc32)cc1` [Example 444, (Z)-3-[1-(4-piperidinomethyl-phenylamino)-1-(4-methoxycarbonyl-phenyl)-methylidene]-5-nitro-2-indolinone], 178 to 183 °C.
Same read-out and setting: in the case of `O=C1Nc2ccc([N+](=O)[O-])cc2/C1=C(/Nc1ccc(CN2CCCCC2)cc1)c1ccc(C(=O)O)cc1` [Example 445, (Z)-3-[1-(4-piperidinomethyl-phenylamino)-1-(4-carboxyphenyl)-methylidene]-5-nitro-2-indolinone] it was 230 °C; in that of `COC(=O)CNC(=O)c1ccc(/C(Nc2ccc(CN3CCCCC3)cc2)=C2/C(=O)Nc3ccc([N+](=O)[O-])cc32)cc1` [Example 446, (Z)-3-[1-(4-piperidinomethyl-phenylamino)-1-(4-methoxycarbonylmethylaminocarbonyl-phenyl)-methylidene]-5-nitro-2-indolinone], 230 to 235 °C.
The same measure, in the same setting: in the case of `COC(=O)CCNC(=O)c1ccc(/C(Nc2ccc(CN3CCCCC3)cc2)=C2/C(=O)Nc3ccc([N+](=O)[O-])cc32)cc1` [Example 447, (Z)-3-[1-(4-piperidinomethyl-phenylamino)-1-(4-(2-methoxycarbonyl-ethylaminocarbonyl)-phenyl)-methylidene]-5-nitro-2-indolinone] it was 130 °C; in that of `O=C1Nc2ccc(Br)cc2/C1=C(/Nc1ccc(CN2CCCCC2)cc1)c1ccccc1` [Example 450, (Z)-3-[1-(4-piperidinomethyl-phenylamino)-1-phenyl-methylidene]-5-bromo-2-indolinone], 170 °C.
For `COCC(=O)N(CCN(C)C)c1ccc(N/C(=C2\C(=O)Nc3ccccc32)c2ccccc2)cc1` [Example 451, (Z)-3-[1-(4-(N-(2-dimethylaminoethyl)-N-methoxymethylcarbonyl-amino)-phenylamino)-1-phenyl-methylidene]-2-indolinone], the melting point was 246 to 249 °C.
With `CN(C)CCN(C(=O)c1ccccc1)c1ccc(N/C(=C2\C(=O)Nc3ccccc32)c2ccccc2)cc1` [Example 452, (Z)-3-[1-(4-(N-(2-dimethylaminoethyl)-N-benzoyl-amino)-phenylamino)-1-phenyl-methylidene]-2-indolinone], the melting point was in the range of 272 to 274 °C.
On the same count and under the same terms, in the case of `CCCCS(=O)(=O)N(CCN(C)C)c1ccc(N/C(=C2\C(=O)Nc3ccccc32)c2ccccc2)cc1` [Example 453, (Z)-3-[1-(4-(N-(2-dimethylaminoethyl)-N-butylsulphonyl-amino)-phenylamino)-1-phenyl-methylidene]-2-indolinone] it was 225 to 227 °C; in that of `Cc1ccc(S(=O)(=O)N(CCN(C)C)c2ccc(N/C(=C3\C(=O)Nc4ccccc43)c3ccccc3)cc2)cc1` [Example 454, (Z)-3-[1-(4-(N-(2-dimethylaminoethyl)-N-(p-tolylsulphonyl)-amino)-phenylamino)-1-phenyl-methylidene]-2-indolinone], 213 to 215 °C.
